Laboratory results: ChEMBL document CHEMBL3396983, “Synthesis of erythrocentaurin derivatives as a new class of hepatitis B virus inhibitors” (Bioorg Med Chem Lett, 2015)

How the values were obtained:
[1] = Cytotoxicity against human HepG2(2.2.15) cells after 72 hrs by MTT assay; format: cell-based
[2] = test system: Hepatitis B virus; test: Inhibition of HBV HBsAg secretion in HepG2(2.2.15) cells after 72 hrs by ELISA method; format: functional, organism-based; conditions: HepG2 2.2.15, 72 h
[3] = Selectivity index, ratio of CC50 for human HepG2(2.2.15) cells to IC50 for inhibition of HBV HBsAg secretion in HepG2(2.2.15) cells; format: functional
[4] = test system: Hepatitis B virus; test: Inhibition of HBV HBeAg secretion in HepG2(2.2.15) cells after 72 hrs by ELISA method; format: functional, organism-based; conditions: HepG2 2.2.15, 72 h
[5] = test system: Hepatitis B virus; test: Inhibition of HBV DNA replication in HepG2(2.2.15) cells exposed to fresh medium supplemented with compound every other day for additional 5 days by real-time PCR-fluorescent probing method; format: functional, organism-based; conditions: HepG2 2.2.15, 120 h
[6] = Selectivity index, ratio of CC50 for human HepG2(2.2.15) cells to IC50 for inhibition of HBV DNA replication in HepG2(2.2.15) cells; format: functional
[7] = Selectivity index, ratio of CC50 for human HepG2(2.2.15) cells to IC50 for inhibition of HBV HBeAg secretion in HepG2(2.2.15) cells; format: functional

| Compound | IC50 [2] [µM] | IC50 [4] [µM] | IC50 [5] [µM] | CC50 at 72 h [1] [µM] | Ratio CC50/IC50 [3] | Ratio CC50/IC50 [6] | Ratio CC50/IC50 [7] |
| --- | --- | --- | --- | --- | --- | --- | --- |
| O=C1OCCc2c(CO)cccc21 | 2700 | 1460 | 170 | > 3800 | >1.4 | >22.4 | >2.6 |
| NC(=O)c1cccc2c1CCOC2=O | > 3290 | > 3290 | 820 | > 3290 |  | >4 |  |
| N=C(N)c1cccc2c1CCOC2=O | 2240 | 2840 | 380 | 2050 |  | 5.4 |  |
| O=C1OCCc2c1cccc2C1OCCO1 | > 2580 | 2180 | 570 | > 2580 |  | >4.5 | >1.2 |
| CC(=O)OCc1cccc2c1CCOC2=O | 1310 | > 2430 | > 860 | > 2430 | >1.8 |  |  |
| CCCCCCCC(=O)OCc1cccc2c1CCOC2=O | > 3450 | > 3450 | > 860 | > 3450 |  |  |  |
| CCC(CC)C(=O)OCc1cccc2c1CCOC2=O | > 2590 | > 2590 | > 650 | 1890 |  |  |  |
| CCOCC(=O)OCc1cccc2c1CCOC2=O | > 3680 | > 3680 | > 920 | > 3680 |  |  |  |
| O=C1OCCc2c(COC(=O)C3CCCCC3)cccc21 | > 1840 | > 1840 | 26 | > 1840 |  | >70.8 |  |
| O=C(OCc1cccc2c1CCOC2=O)c1cccc([N+](=O)[O-])c1 | > 2720 | > 2720 | > 680 | > 2720 |  |  |  |
| O=C(OCc1cccc2c1CCOC2=O)c1ccc([N+](=O)[O-])cc1 | > 2260 | > 2260 | > 560 | > 2260 |  |  |  |
| O=C(OCc1cccc2c1CCOC2=O)c1ccco1 | > 2350 | > 2350 | > 840 | > 2350 |  |  |  |
| C[C@H](Cn1cnc2c(N)ncnc21)OCP(=O)(O)O [TENOFOVIR ANHYDROUS] | 2320 | 1940 | 0.5 | 1850 |  | >3571.3 |  |

Further lines, with some results ahead:

| IC50 [2] [µM] | IC50 [4] [µM] | IC50 [5] [µM] | Compound | CC50 at 72 h [1] [µM] | Ratio CC50/IC50 [3] | Ratio CC50/IC50 [6] | Ratio CC50/IC50 [7] |
| --- | --- | --- | --- | --- | --- | --- | --- |
| 1630 | > 2670 | 540 | O=C(OCc1cccc2c1CCOC2=O)c1cc2ccccc2o1 | 830 | <1 | 1.5 |  |
| 1300 | 1140 | 760 | O=Cc1cccc2c1CCOC2=O | 1760 | 1.4 | 2.3 | 1.5 |
| 3180 | 2950 | 390 | O=C(O)c1cccc2c1CCOC2=O | > 4540 | >1.4 | >11.6 | >1.5 |
| > 4000 | 2330 | 360 | O=C1OCCc2c(/C=N\O)cccc21 | > 4000 |  | >11.1 | >1.7 |
| > 1810 | > 1810 | > 450 | O=C1/C(=C/c2cccc3c2CCOC3=O)Oc2cc(O)ccc21 | > 1810 |  |  |  |
| > 2160 | > 2160 | 80 | O=C1OCCc2c(/C=C\c3ccccc3)cccc21 | > 2160 |  | >27 |  |
| > 2430 | > 2430 | 110 | O=C1OCCc2c(/C=C/c3ccccc3)cccc21 | > 2430 |  | >22.1 |  |
| > 1650 | 1340 | > 410 | O=C1OCCc2c(/C=N/Nc3ccc([N+](=O)[O-])cc3[N+](=O)[O-])cccc21 | > 1650 |  |  | >1.2 |
| 72 | 56 | 84 | O=C(O)c1ccccc1C(=O)OCc1cccc2c1CCOC2=O | 130 | 1.8 | 1.6 | 2.3 |
| > 2700 | > 2700 | > 680 | O=C(OCc1cccc2c1CCOC2=O)c1cccnc1 | > 2700 |  |  |  |
| > 1620 | 840 | 45 | COc1cccc(/C=C/C(=O)OCc2cccc3c2CCOC3=O)c1 | > 1620 |  | >36 | >1.9 |
| > 2050 | > 2050 | 77 | O=C(OCc1cccc2c1CCOC2=O)c1cc2ccccc2[nH]1 | > 2050 |  | >26.6 |  |
| 2300 | 1810 | 520 | O=C(OCc1cccc2c1CCOC2=O)c1cc(=O)c2ccccc2o1 | 2570 | 1.1 | 4.9 | 1.4 |
